The assay addresses T1, CrmG (Actinoalloteichus sp. WH1-2216-6, UniProt H8Y6N2, W223A).
T1 construct: pET28a, N-terminal His-tag and 14 additional vector residues; expressed in E. coli BL21; dimer (114 kDa by DLS)
Put plainly: UV-vis conversion of PLP to PMP. The assay is classed as biochemical. The conditions noted are these: 0.02 mM CrmG W223A, 0.2 mM PLP, 2 mM amino donor (L-Glu, L-Gln or L-Ala), 50 mM Tris pH 7.5, 30 °C.

T1 sequence (H8Y6N2 entry or part of it W223A): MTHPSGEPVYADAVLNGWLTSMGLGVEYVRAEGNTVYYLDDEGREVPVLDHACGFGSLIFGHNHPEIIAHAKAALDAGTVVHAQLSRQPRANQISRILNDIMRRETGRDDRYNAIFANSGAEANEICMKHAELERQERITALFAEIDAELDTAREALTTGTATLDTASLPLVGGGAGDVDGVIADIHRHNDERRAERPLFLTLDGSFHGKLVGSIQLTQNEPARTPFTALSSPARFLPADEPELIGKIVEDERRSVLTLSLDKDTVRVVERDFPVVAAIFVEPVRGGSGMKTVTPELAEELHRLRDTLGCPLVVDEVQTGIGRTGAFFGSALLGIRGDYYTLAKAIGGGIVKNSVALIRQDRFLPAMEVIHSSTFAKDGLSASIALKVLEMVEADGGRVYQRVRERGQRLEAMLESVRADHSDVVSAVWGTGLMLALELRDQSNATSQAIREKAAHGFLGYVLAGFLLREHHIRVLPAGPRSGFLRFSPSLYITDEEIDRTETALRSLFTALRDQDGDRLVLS

With `Cc1ncc(COP(=O)(O)O)c(C=O)c1O` [PLP], the “UV-vis conversion of PLP to PMP” value is listed as “CrmG catalyzing PLP conversion to PMP is greatly improved by the mutation W223A”.

The values are drawn from article PMC7438487, “Structural studies reveal flexible roof of active site responsible for ω-transaminase CrmG overcoming by-product inhibition” (Communications Biology, 2020).
